Test results published in patent publication EP3445382B1, “HARUNGANA MADAGASCARIENSIS LEAF EXTRACT FOR USE IN THE TREATMENT AND/OR PREVENTION OF ACNE” (Société d'Exploitation de Produits pour les Industries …, priority 2016, dated 2017).

Assays:
[1] = test system: IL-12 release by LPS-stimulated PBMCs; experiment: IL-12 release by LPS-stimulated PBMCs (ELISA); type: cell-based, human; conditions: 10^-7 M, LPS 1 µg/ml
Protocol: (§1) In the present example, the potential anti-inflammatory effect of HMA extract was investigated in human peripheral blood mononuclear cells (PBMCs) under stimulated conditions. More precisely, the effect of the test compound was evaluated on IL-8, IL-10 and IL-12 release by LPS-stimulated PBMCs using specific ELISA kits.
(§2) The quantification of anti-inflammatory effects was undertaken as follows: Samples of HMA extract to be analyzed were prepared from a stock solution containing 5% (w/v) in glycerol/ultra-pure water (60/40).
(§3) PBMCs were isolated from whole blood, seeded in 96-well plates and incubated in culture medium for 1 hour. The medium was then replaced by culture medium containing or not (stimulated control) the test compound or the reference compound, i.e., dexamethasone tested at 10^-7 M, and cells were pre-incubated for 1 hour. The inflammatory inducer, LPS (1 µg/ml) was then added and cells were incubated for 24 hours. A non-stimulated control was also performed in parallel. All experimental conditions were performed in n=3.
(§4) After incubation, the culture supernatants were collected in order to quantify IL-8, IL-10 and IL-12 release. […]
(§5) The quantity of IL-8, IL-10 and IL-12 released in the culture supernatants was measured using specific ELISA kits according to the supplier's instructions.
(§6) Raw data were analyzed using Microsoft Excel® software. […]

PBMCs = experiment: viability assay (alamarBlue) on LPS-stimulated PBMCs; type: cell-based, human; conditions: 10^-7 M
Protocol: as §3
After incubation, the culture supernatants were collected in order to quantify IL-8, IL-10 and IL-12 release. A viability assay was performed on cells according to a standard alamarBlue® protocol.
After treatment, the cells were incubated with alamarBlue® reduced in resorufin via the mitochondrial reduction reactions of metabolically active cells. This transformation is proportional to the number of living cells. The optical density (OD) at 570nm was recorded using a microplate reader (VERSAmax, Molecular Devices).

[2] = test system: IL-8 release by LPS-stimulated PBMCs; experiment: IL-8 release by LPS-stimulated PBMCs (ELISA); type: cell-based; conditions: Homo sapiens, PBMC; 10^-7 M; LPS 1 µg/ml, 24 hours
Protocol: as §1, §2, §3, §4, §5, §6

[3] = test system: IL-10 release by LPS-stimulated PBMCs; experiment: IL-10 release by LPS-stimulated PBMCs (ELISA); type: cell-based, human; conditions: 10^-7 M, LPS 1 µg/ml, 24 hours
Protocol: as §1, §2, §3, §4, §5, §6

[4] = acellular lipid peroxidation, TBARS production (hemin-induced, phosphatidylcholine micelles); type: biochemical; conditions: 10 µM, hemin 5 µM, 1 hour at 37 °C
Protocol: In the present example, the effect of HMA extract was evaluated on oxidative stress. More specifically, its protective effect against lipid peroxidation (acellular reaction) was evaluated by measuring the production of thiobarbituric acid reactive substances (TBARS). The quantification of anti-oxidant capacity was undertaken as follows: Samples of HMA extract to be analyzed were prepared from a stock solution containing 5% (w/v) in glycerol/ultra-pure water (60/40). […] Additional control conditions were also included in the experimental design: without inducer (non-activated condition), 'Interference' controls (test compound added to the reactive medium without micelles of lipids to assess a potential auto-fluorescence of compounds) and 'Quenching' controls (test compound added at the end of reaction to check for potential quenching of the signal directly by the test compounds). […] TBARS thus produced were then evaluated by fluorescence measurement (λex 540 nm; λem 590 nm). The results are expressed as TBARS equivalent, representing the antioxidant activity expressed as Trolox equivalent of the test compound. Raw data were analyzed using Microsoft Excel® software. […]

[5] = biological target: T1, pancreatic lipase (PL; 3.1.1.3) (Homo sapiens, UniProt P16233); experiment: lipase activity, biochemical test with radioactive triolein substrate; conditions: 1000 nM; 2 hours at 37 °C
T1 sequence (P16233 17-465): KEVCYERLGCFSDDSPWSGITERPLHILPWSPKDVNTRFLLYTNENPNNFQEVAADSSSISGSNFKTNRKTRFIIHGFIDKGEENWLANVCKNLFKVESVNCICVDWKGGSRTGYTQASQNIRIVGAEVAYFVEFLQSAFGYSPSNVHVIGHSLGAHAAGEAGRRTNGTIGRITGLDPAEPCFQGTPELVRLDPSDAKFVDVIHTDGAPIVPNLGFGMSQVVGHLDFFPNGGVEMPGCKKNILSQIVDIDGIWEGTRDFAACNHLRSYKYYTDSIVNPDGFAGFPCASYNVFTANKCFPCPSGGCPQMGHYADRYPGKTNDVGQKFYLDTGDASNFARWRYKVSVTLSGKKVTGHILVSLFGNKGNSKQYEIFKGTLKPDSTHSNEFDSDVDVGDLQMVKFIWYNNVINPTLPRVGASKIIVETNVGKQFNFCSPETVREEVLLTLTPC
Protocol: In the present example, the effect of HMA extract was evaluated on the lipase activity with a biochemical test using a radioactive substrate. The lipase catalyzes the hydrolysis of glycerol-ester (glycerides) and long chain fatty acid emulsions. The substrate of this enzyme is not a simple molecule but a non-aqueous phase of aggregated lipids. The usual method to quantify the lipase activity is titration (pH variation) which is not often efficient for the testing of inhibitory compounds and generates several artifacts. An alternative and more efficient method (followed in the present example) was to use a radioactive complex lipid substrate.
The quantification of lipase activity was undertaken as follows: Samples of HMA extract to be analyzed were prepared from a stock solution containing 5% (w/v) in glycerol/ultra-pure water (60/40).
The compound and the reference (Orlistat tested at 1000 nM) were incubated for 2 hours at 37 °C in presence of the enzyme, pancreatic lipase (PL; 3.1.1.3) at 125 U/ml and the radioactive substrate (3.34 µCi/tube, stable emulsion of triolein at 5.25 mM corresponding to a mix of cold and titriated triolein). A negative control was performed by incubating the substrate alone, without enzyme in the reaction mix, in order to determine the background signal. […]
as §6

C[C@@H]1C[C@H]2[C@@H]3CCC4=CC(=O)C=C[C@]4(C)[C@@]3(F)[C@@H](O)C[C@]2(C)[C@@]1(O)C(=O)CO [Dexamethasone, dexamethasone]
% Inhibition ([1]; 24 hours): >100%
inhibition at 0.1 µM ([1]; Homo sapiens, PBMC, 24 h): 100%
Viability % stimulated control (PBMCs): 88 % stimulated control
inhibition at 0.1 µM [2]: 72%
% Inhibition (I) or % stimulation (S) [3]: 32 (I) %
inhibition at 0.1 µM ([3]; Homo sapiens, PBMC, inhibition (I), read-out: % Inhibition (I) or % stimulation (S)): 32%

Cc1c(C)c2c(c(C)c1O)CCC(C)(C(=O)O)O2 (centres unmarked) [Trolox, 6-hydroxy-2,5,7,8-tetramethylchroman-2-carboxylic acid]
% Inhibition [4]: 72%

CCCCCCCCCCC[C@@H](C[C@@H]1OC(=O)[C@H]1CCCCCC)OC(=O)[C@H](CC(C)C)NC=O [Orlistat]
inhibition at 1 µM [5]: 41%
